Measurements as given in US12338270B2, “Pharmaceutical composition comprising polypeptide” (D&D Pharmatech Inc., priority 2018, dated 2025).
Non-standard residues stand in square brackets, D forms with d. No end group written: not given here. tri‑branched mPEG‑MAL 50 kDa = tri-branched maleimide-activated monomethoxy PEG, 50 kDa; Aib = CC(C)(N)C(=O)O

Assays:
Type in all cases: in vivo
[1] = test system: animal model of non-alcoholic fatty liver diseases (C57BL/6 mice, 60% high-fat diet); assay: non-alcoholic fatty liver disease model, 60% high-fat diet (Experimental Example 7); settings: 20 nmol/kg s.c. once every other day for 2 weeks
Protocol: Specifically, first of all, a laboratory animal model of non-alcoholic fatty liver diseases was prepared by feeding a 60% high-fat diet to normal C57BL/6 mice (approximately 6 weeks old) for approximately 24 weeks, and increasing the body weights of the mice to approximately 50 g in average. Thereafter, the conjugate of Example 2 was administered by subcutaneous injection at a dose of 20 nmol/kg once every other day for 2 weeks. […] After the 2-week administration of the drug, blood was collected from the mice to measure a serum cholesterol concentration, and the livers were extracted, weighed, embedded in paraffin, and then microtomed into thin slices. Thereafter, the liver biopsy was conducted using a hematoxylin & eosin (H&E).

[2] = test system: obesity animal model (C57BL/6 mice, 60% high-fat diet); assay: intraperitoneal glucose tolerance test (ipGTT) in obesity model after 2-week administration (Experimental Example 3); parameters: blood glucose in ipGTT: unit not given here; settings: after 2 weeks of 20 nmol/kg s.c. once every other day
Protocol: This experiment was performed in the same manner as in Experimental Example 2, and then the glucose tolerance was evaluated in a mouse model using an intraperitoneal glucose tolerance test (ipGTT).
After the 2-weeks administration of the drugs was completed in the same manner as in Experimental Example 2, 2 g/kg of glucose was administered intraperitoneally to measure a change in blood glucose with the elapse of time (0, 15, 30, 60, 90, and 120 minutes).

[3] = test system: obesity animal model (C57BL/6 mice, 60% high-fat diet); assay: ipGTT in obesity model, Examples 2 and 6 (Experimental Example 6); settings: 2 g/kg glucose i.p. after 2 weeks of 20 nmol/kg s.c. once every other day; FIG. 6
Protocol: To check a preventing or therapeutic effect of the conjugates of Examples 2 and 6, which had different amino acid sequences, on obesity or diabetes, an animal model of obesity was prepared by feeding a 60% high-fat diet to normal C57BL/6 mice (approximately 6 weeks old) for approximately 24 weeks, and increasing the body weights of the mice to approximately 50 g in average. Thereafter, each of the conjugates of Examples 2 or 6 was administered by subcutaneous injection at a dose of 20 nmol/kg once every other day for 2 weeks. As the control, PBS was administered instead of the conjugates of Examples. For 2 weeks when the conjugates of Examples 2 or 6 were administered, changes in blood glucose with time were measured. Also, to perform an intraperitoneal glucose tolerance test (ipGTT), 2 g/kg of glucose was administered intraperitoneally after the 2-week administration of the drug, and changes in blood glucose with the elapse of time (0, 15, 30, 60, 90, and 120 minutes) were measured.

Example 2: Conjugate of polypeptide H(Aib)QGTFTSDYSKYLDEQAAKEFVQWLMNTC (SEQ ID NO. 2) and tri-branched mPEG-MAL (MW: 50 kDa) (H[Aib]QGTFTSDYSKYLDEQAAKEFVQWLMNTC(tri‑branched mPEG‑MAL 50 kDa); lactam (positions not given here); not fully specified (bridges); printed as H(Aib)QGTFTSDYSKYLDEQAAKEFVQWLMNTC)
hepatic steatosis in liver biopsy vs non-treated group ([1]; H&E, also reduced vs liraglutide, FIG. 9): significantly reduced | level of serum cholesterol vs non-treated group ([1]; also lowered vs liraglutide, FIG. 7): significantly lowered | liver weights vs non-treated group ([1]; also lowered vs liraglutide, FIG. 8): significantly lowered | blood glucose in ipGTT ([2]; 0 min after 2 g/kg glucose i.p.): 40 | blood glucose in ipGTT ([2]; 15 min after 2 g/kg glucose i.p.): 216 | blood glucose in ipGTT ([2]; 30 min after 2 g/kg glucose i.p.): 172 | blood glucose in ipGTT ([2]; 60 min after 2 g/kg glucose i.p.): 61 | blood glucose in ipGTT ([2]; 90 min after 2 g/kg glucose i.p.): 48 | blood glucose in ipGTT ([2]; 120 min after 2 g/kg glucose i.p.): 44 | increase in blood glucose in ipGTT vs non-treated group [2]: an increase in blood glucose was significantly reduced | increase in blood glucose in ipGTT vs control [3]: an increase in blood glucose was significantly reduced
